# Assay results: patent US20230256120A1, “DIAGNOSTIC AGENT FOR PANCREATIC FUNCTION” (HAMAMATSU PHOTONICS K.K., priority 2020, published 2023)
# Tested on: MC-I in the pancreas
# Assay: PET measurement of [^18F]BCPP-BF accumulation in the pancreas of type II diabetes model rats
# Assay type: in vivo, rat
# Conditions: fatty rats versus lean rats; PET measurement method; after 5 weeks of age; FIG. 2(A)
# Text: Male Zucker Leprfa/Leprfa rats (hereinafter also referred to as “fatty rats”) that develop pathological conditions similar to type II diabetes of human adults and male Zucker Leprfa/+ rats (hereinafter also referred to as “lean rats”) as controls thereof were purchased from Charles River Laboratories Japan, Inc., and used for PET measurement at 5, 8, 16, and 26 weeks of age.
# The rats were anesthetized with isoflurane and fixed in a gantry of an animal PET camera (SHR-38000, manufactured by Hamamatsu Photonics K.K.). […] After the completion of the PET measurement, a region of interest was set on the pancreas identified from an accumulated PET image 40 to 60 minutes after the administration of D-[^11C]MT, and the amount of [^18F]BCPP-BF accumulated in the region of interest was calculated. Subsequently, the calculated accumulation amount was normalized by the amount of radioactivity administered and the body weight of each individual and defined as an amount (amount (SUV) of radioactivity administered) of [^18F]BCPP-BF accumulated in the pancreas.
# The pancreas was excised from each rat immediately after the completion of the PET measurement, and the weight of the excised pancreas was measured. Subsequently, the radioactivity of the excised pancreas was measured using a gamma counter (manufactured by PerkinElmer Inc., 1480 WIZARD). […]
smiles,measurement,value
CC(C)(C)n1ncc(OCc2ccc(OCCCC[18F])nc2)c(Cl)c1=O [[^18F]BCPP-BF],uptake (SUV) of [^18F]BCPP-BF in the pancreas,decreased
